The values below come from ChEMBL document CHEMBL1151872, “Antagonists of the human A(2A) receptor. Part 5: Highly bio-available pyrimidine-4-carboxamides” (Bioorg Med Chem Lett, 2009).

Structures are written as SMILES. In brackets after ≈: the same amount, converted by molar mass.

Series [1] concerns the target T1, Adenosine receptor A2a (Homo sapiens, UniProt P29274).
Description: Displacement of [3H]CGS21680 from human adenosine A2A receptor
A further series addresses T2, Adenosine receptor A1 (Homo sapiens, UniProt P30542).
T2 sequence (P30542 whole entry): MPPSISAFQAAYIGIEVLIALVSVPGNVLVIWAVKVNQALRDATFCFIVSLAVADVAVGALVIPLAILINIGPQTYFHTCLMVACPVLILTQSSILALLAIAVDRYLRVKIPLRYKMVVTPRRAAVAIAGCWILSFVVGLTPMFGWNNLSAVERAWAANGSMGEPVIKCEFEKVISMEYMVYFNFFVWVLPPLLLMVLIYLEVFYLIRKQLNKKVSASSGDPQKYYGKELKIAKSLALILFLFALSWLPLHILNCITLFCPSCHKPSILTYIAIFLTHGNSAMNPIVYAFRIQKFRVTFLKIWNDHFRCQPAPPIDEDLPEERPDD

The target in the next series is T3, Adenosine receptor A2b (Homo sapiens, UniProt P29275).
T3 sequence (P29275 whole entry): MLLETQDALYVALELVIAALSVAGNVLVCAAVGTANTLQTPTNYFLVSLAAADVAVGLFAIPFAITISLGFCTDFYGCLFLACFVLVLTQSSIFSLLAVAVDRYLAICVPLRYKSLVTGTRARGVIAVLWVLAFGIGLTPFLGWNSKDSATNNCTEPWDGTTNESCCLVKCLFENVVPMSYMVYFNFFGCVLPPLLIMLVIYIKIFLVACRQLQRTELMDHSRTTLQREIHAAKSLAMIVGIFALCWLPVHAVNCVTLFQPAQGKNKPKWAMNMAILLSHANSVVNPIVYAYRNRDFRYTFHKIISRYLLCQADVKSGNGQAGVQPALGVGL
The series is described as follows: Binding affinity to adenosine A2B receptor.

The target of another series is T4, Adenosine receptor A3 (Homo sapiens, UniProt P0DMS8).
T4 sequence (P0DMS8 whole entry): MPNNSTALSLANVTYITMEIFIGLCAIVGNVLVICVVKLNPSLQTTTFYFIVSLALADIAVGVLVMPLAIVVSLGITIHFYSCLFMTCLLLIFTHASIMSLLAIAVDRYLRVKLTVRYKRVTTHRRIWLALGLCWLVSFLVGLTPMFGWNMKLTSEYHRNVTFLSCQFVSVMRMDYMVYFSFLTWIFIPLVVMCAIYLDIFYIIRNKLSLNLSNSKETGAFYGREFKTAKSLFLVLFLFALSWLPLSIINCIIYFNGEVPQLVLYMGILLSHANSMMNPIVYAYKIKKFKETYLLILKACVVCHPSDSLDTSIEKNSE
The series is described as follows: Binding affinity to adenosine A3 receptor.

The species entered for series [2] is Homo sapiens. The series is described as follows: Selectivity for human adenosine A2A receptor over human adenosine A2B receptor.
Series [3] is filed under the species Homo sapiens. The series can be described thus: Selectivity for human adenosine A2A receptor over human adenosine A3 receptor.
Series [4] addresses T1, Adenosine receptor A2a. This is another data set of the same source.
Description: Agonist activity against human adenosine A2A receptor assessed as calcium mobilization by FLIPR assay
A further series deals with Mus musculus. The series is described as follows: Reversal of haloperidol-induced locomotor movement deficit in po dosed mouse assessed as minimum effective dose administered 15 mins before testing. The settings on record: read-out: MED.
The nature of series [5]: Aqueous solubility of the compound. Format: physicochemical.
Series [6] in a line: Inhibition of Cytochrome P450. Format: ADME.
Series [7] in a line: Half life in po dosed Sprague-Dawley rat plasma. Format: ADME, organism-based.
Another series relates to Brain. The series is described as follows: Drug uptake in Sprague-Dawley rat brain at 2 mg/kg, iv. Format: ADME, organism-based. Further details: dose 2 mg/kg, route intravenous; call rule not given here. The settings on record: in vivo.
Series [8] in a line: Half life in po dosed Sprague-Dawley rat brain. It is filed as ADME, organism-based.
The nature of series [9]: Tmax in Sprague-Dawley rat plasma. It is filed as ADME, organism-based.

T1 sequence (P29274 whole entry): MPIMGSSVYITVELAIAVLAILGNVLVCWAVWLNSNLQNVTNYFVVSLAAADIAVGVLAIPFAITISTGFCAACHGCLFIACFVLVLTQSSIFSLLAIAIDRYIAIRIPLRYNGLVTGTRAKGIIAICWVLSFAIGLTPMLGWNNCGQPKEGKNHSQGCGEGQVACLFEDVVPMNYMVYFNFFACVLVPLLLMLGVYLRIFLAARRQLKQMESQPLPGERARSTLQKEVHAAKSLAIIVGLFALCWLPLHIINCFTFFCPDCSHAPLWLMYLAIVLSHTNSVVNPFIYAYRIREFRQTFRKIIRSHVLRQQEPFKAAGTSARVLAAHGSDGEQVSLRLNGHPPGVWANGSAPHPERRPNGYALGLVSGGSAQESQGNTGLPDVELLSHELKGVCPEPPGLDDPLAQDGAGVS
Description for Adenosine receptor A1: Displacement of [3H]CGS21680 from human adenosine A1 receptor

In the case of `Nc1nc(C(=O)NCc2ccco2)cc(-c2ccco2)n1`, the Ki on Adenosine receptor A2a [1] stood at 14 nM; on Adenosine receptor A1, 214 nM.
The matching figures for `COc1ccc(CNC(=O)c2cc(-c3ccco3)nc(N)n2)cc1`: 79 nM and 157 nM.
Consider `Nc1nc(C(=O)NCc2cccnc2)cc(-c2ccco2)n1`, for which the Ki on Adenosine receptor A2b stood at 5870 nM; at Adenosine receptor A3, 6440 nM; at Adenosine receptor A2a [1], 9.4 nM; at Adenosine receptor A1, 124 nM. Further, the Ratio Ki in the series listed under Homo sapiens [2] and in the series filed under Homo sapiens [3] was less than 1000 each time. On Adenosine receptor A2a [4], this molecule had an EC50 not below 10000 nM.
Consider `CCn1c(=O)c2c(nc(/C=C/c3ccc(OC)c(OC)c3)n2C)n(CC)c1=O` [ISTRADEFYLLINE], for which the minimal effective dose in the series with Mus musculus was 0.3 mg/kg.
Regarding `Nc1nc(C(=O)NCc2ccc(F)cc2)cc(-c2ccco2)n1`, the Ki at Adenosine receptor A2a [1] was found to be 20 nM; at Adenosine receptor A1 it was 140 nM.
Take `Cc1ccccc1CNC(=O)c1cc(-c2ccco2)nc(N)n1`: the inhibition constant (Ki) at Adenosine receptor A2b stood at 917 nM; on Adenosine receptor A3 it was 586 nM; at Adenosine receptor A2a [1] it was 2.2 nM; on Adenosine receptor A1 it was 73 nM. On Adenosine receptor A2a [4], this molecule registered an EC50 not below 10000 nM. For the same molecule, in the series on Mus musculus, the minimal effective dose turned out to be 30 mg/kg.
Consider `Nc1nc(C(=O)NCc2ccccn2)cc(-c2ccco2)n1`, for which the results for the Ki at Adenosine receptor A2b and at Adenosine receptor A3 were 754 nM and 1390 nM, respectively. For the same molecule, the minimal effective dose with Mus musculus is 3 mg/kg.
As for `Nc1nc(C(=O)NCc2ccc(Cl)cc2)cc(-c2ccco2)n1`, the Ki at Adenosine receptor A2a [1] is 17.5 nM; at Adenosine receptor A1, 80 nM.
For the molecule `Nc1nc(C(=O)NCc2ccccc2Cl)cc(-c2ccco2)n1`, the Ki at Adenosine receptor A2b came to 137 nM; at Adenosine receptor A3, 414 nM; on Adenosine receptor A2a [1], 2.6 nM; on Adenosine receptor A1, 72 nM. At Adenosine receptor A2a [4], the EC50 is not below 10000 nM. Also, in the series with Mus musculus, the minimal effective dose worked out at 30 mg/kg.
Take `COc1ccccc1CC(=O)Nc1nc(N)nc(-c2ccco2)c1[N+](=O)[O-]`: the Ki on Adenosine receptor A2a [1] was 10 nM; at Adenosine receptor A1, 884 nM.
Turning to `Nc1nc(C(=O)NCc2cccc(Cl)c2)cc(-c2ccco2)n1`, the Ki on Adenosine receptor A2b came to 184 nM; on Adenosine receptor A3, 507 nM; on Adenosine receptor A2a [1], 3.7 nM; at Adenosine receptor A1 it was 12.2 nM. The molecule also registered an EC50 at Adenosine receptor A2a [4] not below 10000 nM.
As for `Nc1nc(NC(=O)c2ccccc2OC(F)(F)F)c([N+](=O)[O-])c(-c2ccco2)n1`, the results for the Ki on Adenosine receptor A2a [1] and on Adenosine receptor A1 were 16 nM and 298 nM, respectively.
Consider `Nc1nc(C(=O)NCc2cccc(CO)n2)cc(-c2ccco2)n1`, for which the Ki is 9.3 nM at Adenosine receptor A2a [1] and 260 nM at Adenosine receptor A1. The minimal effective dose in the series on Mus musculus was 30 mg/kg.
`Nc1cccc(CNC(=O)c2cc(-c3ccco3)nc(N)n2)n1`: the inhibition constant (Ki) at Adenosine receptor A2b came to 444 nM; at Adenosine receptor A3 it was 1480 nM; at Adenosine receptor A2a [1] it was 7 nM; at Adenosine receptor A1, 131 nM. Further, the EC50 at Adenosine receptor A2a [4] was not below 10000 nM. In addition, the minimal effective dose with Mus musculus is 1 mg/kg.
`Nc1nc(C(=O)NCc2ccncc2)cc(-c2ccco2)n1`: the Ki turned out to be 388 nM at Adenosine receptor A2a [1] and 1340 nM at Adenosine receptor A1.
For `Nc1nc(NC(=O)c2ccncc2)c([N+](=O)[O-])c(-c2ccco2)n1`, the Ki was found to be 153 nM at Adenosine receptor A2a [1] and 2000 nM on Adenosine receptor A1.
In the case of `COc1cccc(CNC(=O)c2cc(-c3ccco3)nc(N)n2)c1`, the Ki is 121 nM on Adenosine receptor A2b, 1100 nM at Adenosine receptor A3, 6.1 nM at Adenosine receptor A2a [1] and 47 nM at Adenosine receptor A1. The molecule also showed a 50% effective concentration (EC50) on Adenosine receptor A2a [4] not below 10000 nM.
Consider `COCc1cccc(CNC(=O)c2cc(-c3ccco3)nc(N)n2)n1`, for which the Ki on Adenosine receptor A2b is 460 nM; on Adenosine receptor A3, 1740 nM; at Adenosine receptor A2a [1], 1.7 nM; at Adenosine receptor A1, 42 nM. The Ratio Ki in the series listed under Homo sapiens [2] and in the series listed under Homo sapiens [3] was less than 1000 each time. For the same molecule, the solubility in series [5] was 450 µM (≈ 153 µg/mL). The Activity entry in series [6] is given as “Not Active”. For the same molecule, the half-life in series [7] and in series [8] was 1 h throughout. In the series with Brain, this molecule gave a Drug uptake of 85%. The Tmax in series [9] is 0.25 h. Moreover, on Adenosine receptor A2a [4], the EC50 is not below 10000 nM. Also, in the series with Mus musculus, the minimal effective dose came out at 0.1 mg/kg.
For the molecule `Nc1nc(NC(=O)c2cccnc2)c([N+](=O)[O-])c(-c2ccco2)n1`, the inhibitory constant (Ki) was found to be 220 nM on Adenosine receptor A2a [1] and 3540 nM on Adenosine receptor A1.
As for `COc1ccccc1C(=O)Nc1nc(N)nc(-c2ccco2)c1[N+](=O)[O-]`, the values for the Ki on Adenosine receptor A2a [1] and at Adenosine receptor A1 were 170 nM and 770 nM, respectively.
For the molecule `COc1ccccc1CNC(=O)c1cc(-c2ccco2)nc(N)n1`, the inhibition constant Ki was 156 nM on Adenosine receptor A2b, 402 nM at Adenosine receptor A3, 3.5 nM at Adenosine receptor A2a [1] and 34.5 nM at Adenosine receptor A1. Moreover, at Adenosine receptor A2a [4], the EC50 is not below 10000 nM. For the same molecule, the minimal effective dose with Mus musculus was found to be 20 mg/kg.
As to `Nc1nc(NC(=O)c2ccccc2F)c([N+](=O)[O-])c(-c2ccco2)n1`, the figures for the Ki at Adenosine receptor A2a [1] and on Adenosine receptor A1 were 23 nM and 311 nM, respectively.
Regarding `Cc1ccc(CNC(=O)c2cc(-c3ccco3)nc(N)n2)cc1`, the Ki amounted to 1240 nM at Adenosine receptor A2b, 1850 nM on Adenosine receptor A3, 9.5 nM at Adenosine receptor A2a [1] and 102 nM on Adenosine receptor A1. Also, the EC50 on Adenosine receptor A2a [4] is not below 10000 nM.
`Nc1nc(NC(=O)c2ccccc2)c([N+](=O)[O-])c(-c2ccco2)n1`: the figures for the Ki on Adenosine receptor A2a [1] and at Adenosine receptor A1 were 308 nM and 2060 nM, respectively.
In the case of `Nc1nc(C(=O)NCc2cccc(F)c2)cc(-c2ccco2)n1`, the Ki on Adenosine receptor A2b worked out at 924 nM; at Adenosine receptor A3, 1060 nM; at Adenosine receptor A2a [1], 4.8 nM; on Adenosine receptor A1, 39 nM. Also, at Adenosine receptor A2a [4], the EC50 was not below 10000 nM.
On to `Cc1cccc(CNC(=O)c2cc(-c3ccco3)nc(N)n2)c1`, for which the Ki is 402 nM on Adenosine receptor A2b, 1530 nM at Adenosine receptor A3, 2.6 nM on Adenosine receptor A2a [1] and 38 nM on Adenosine receptor A1. Besides, the Ratio Ki in the series filed under Homo sapiens [2] and in the series filed under Homo sapiens [3] was less than 1000 throughout. The molecule further registered an EC50 on Adenosine receptor A2a [4] not below 10000 nM. Moreover, the minimal effective dose with Mus musculus came out at 3 mg/kg.
Consider `Nc1nc(C(=O)NCc2ccccc2)cc(-c2ccco2)n1`, for which the inhibition constant (Ki) on Adenosine receptor A2b is 858 nM; at Adenosine receptor A3 it was 857 nM; at Adenosine receptor A2a [1], 7.6 nM; on Adenosine receptor A1, 58 nM. The molecule further had an EC50 at Adenosine receptor A2a [4] not below 10000 nM.
Consider `Nc1nc(C(=O)NCc2ccccc2F)cc(-c2ccco2)n1`, for which the Ki came out at 67 nM at Adenosine receptor A2b, 335 nM on Adenosine receptor A3, 3.5 nM at Adenosine receptor A2a [1] and 54 nM at Adenosine receptor A1. The molecule further showed a concentration for a half-maximal effect (EC50) on Adenosine receptor A2a [4] not below 10000 nM. Also, the minimal effective dose with Mus musculus stood at 30 mg/kg.
